We go through 3 compounds from patent US12275737B2, “Polymorphs of a kinase inhibitor, pharmaceutical compositions containing such a compound, preparation methods, and applications” (Meryx, Inc., priority 2019, dated 2025).

Counter-ions that a name gives are not always drawn. Like-named read-outs stand apart in the source and are kept apart here.

A short description of data set [1]: Pharmacokinetics after oral capsule in male beagle dogs. The note with it: for absorption in the body compared with the free alkali of the compound of Formula I: conclusion from Table 6. The data set is classed as in vivo. Here is the method:
Nine male beagle dogs are divided into three groups, three in each group. They are each respectively administrated a 5 mg/kg oral capsule (PO) of Crystal Form 1, Crystal Form 2 and free base of the compound of Formula I (the dose is calculated according to the dose of the free base). Blood is collected from the jugular vein before administration and after administration for 15 minutes, 30 minutes, 1 hour, 2 hours, 4 hours, 6 hours, 8 hours, 10 hours, and 24 hours, and the plasma is separated and stored in a refrigerator at −80° C. LC-MS is subsequently used for analysis.

Data set [2] is described as follows: Determination of crystal form stability. It is filed as physicochemical.
Data set [3] in a line: Determination of saturated solubility. The data set is classed as physicochemical. As to conditions: shaken 4 hours; for saturated solubility: 37° C. Here is the method:
An appropriate amount of a sample of the compound is supersaturated in water at a pH of 1-8 and shaken at 37° C. for 4 hours with a shaker. The compound is sampled, centrifuged, then the supernatant is diluted and tested by HPLC. Calculations are compared to an external standard.
The saturated solubility of the compound of Crystal Form 1 and Crystal Form 2 of the compound of Formula I and MRX-2843 free base at 37° C. in different pH values are shown in Table 3.

[4] abbreviates: 5 mg/kg (as free base), plasma, trihydrochloride.
Where [5] appears, read: male, beagle, dog, plasma, po, 5 mg/kg, 5 mg/kg (as free base).
Where [6] appears, read: stored at 40° C./75% RH for 1, 3 and 6 months, trihydrochloride.
Where [7] appears, read: pH 2.0, water, trihydrochloride.
Where [8] appears, read: pH 3.0, water, trihydrochloride.
Setting [9] is: pH 4.5, water, trihydrochloride.
Where [10] appears, read: pH 6.0, water, trihydrochloride.
Where [11] appears, read: pH 6.8, water, trihydrochloride.
Where [12] appears, read: pH 7.4, water, trihydrochloride.
Setting [13] is: pH 8.0, water, trihydrochloride.
[14] abbreviates: 5 mg/kg (as free base), plasma, listed as Free base of the compound of Formula I.

`CN1CCN(Cc2ccc(-c3cn([C@H]4CC[C@H](O)CC4)c4nc(NCCC5CC5)ncc34)cc2)CC1` [Crystal Form 1, trihydrochloride]: the Cmax (in general, the peak of the concentration-time curve) in data set [1] (setting [4]) is reported as 133 ng/mL. The “absorption in the body compared with the free alkali of the compound of Formula I” value in data set [1] (5 mg/kg) is on record as “better absorbed”. Besides, the AUC(0-inf) (as a rule, total exposure, with the tail of the curve extrapolated) in data set [1] (setting [5]) was determined as 1620 ng·h/mL. In addition, in data set [1] (setting [5]), the AUC(0-t) (as a rule, exposure summed from dosing to a finite time, without extrapolation to infinity) was found to be 1400 ng·h/mL. Also, in data set [1] (male, beagle, dog, plasma, po, 5 mg/kg, 5 mg/kg (as free base), plasma, read-out: Tmax), the Tmax – broadly, the time from dosing to the highest level – stood at 2.67 h. Further, the “crystal form after storage” value in data set [2] (stored at 25° C./60% RH for 1, 3 and 6 months) is listed as “remains unchanged”; in data set [2] (setting [6]), “remains unchanged”. Further, the saturated solubility in data set [3] (setting [7]) was 489.60 mg/mL; in data set [3] (setting [8]) it was 522.25 mg/mL; in data set [3] (setting [9]) it was 513.40 mg/mL; in data set [3] (setting [10]) it was 460.64 mg/mL; in data set [3] (setting [11]) it was 554.17 mg/mL; in data set [3] (setting [12]), 494.83 mg/mL. The saturated solubility in data set [3] (setting [13]) stood at 562.59 mg/mL. The solubility (usually the dissolved amount per volume that the medium holds) at 4 h in data set [3] (water, 37 °C, pH 1, simulated gastric fluid, thermodynamic from solid, pH 1.0, water) is 587 mg/mL.
Consider `CN1CCN(Cc2ccc(-c3cn([C@H]4CC[C@H](O)CC4)c4nc(NCCC5CC5)ncc34)cc2)CC1` [Crystal Form 2, trihydrochloride], for which the AUCInf in data set [1] (setting [4]) is 1,530 h * ng/mL. The AUClast in data set [1] (setting [4]) is 1,323 h * ng/mL. The maximum concentration (Cmax) in data set [1] (setting [4]) was 125 ng/mL. Moreover, in data set [1] (setting [4]), the Tmax amounted to 2.00 h. Further, the “absorption in the body compared with the free alkali of the compound of Formula I” value in data set [1] (5 mg/kg) is “better absorbed”. Besides, the “crystal form after storage” value in data set [2] (stored at 5° C. for 18 and 24 months) was “remains unchanged”; in data set [2] (stored at 25° C./60% RH for 1, 3, 6, 9, 12, 18 and 24 months), “remained unchanged”; in data set [2] (setting [6]) it was “unchanged”. Moreover, the saturated solubility in data set [3] (pH 1.0, water, trihydrochloride) was 535.05 mg/mL; in data set [3] (setting [7]), 531.72 mg/mL; in data set [3] (setting [8]), 512.80 mg/mL; in data set [3] (setting [9]) it was 527.84 mg/mL; in data set [3] (setting [10]) it was 546.95 mg/mL; in data set [3] (setting [11]), 557.34 mg/mL. Further, the saturated solubility in data set [3] (setting [12]) is reported as 516.01 mg/mL; in data set [3] (setting [13]) it was 479.26 mg/mL.
On to `CN1CCN(Cc2ccc(-c3cn([C@H]4CC[C@H](O)CC4)c4nc(NCCC5CC5)ncc34)cc2)CC1` [MRX-2843 free base, reference compound], for which the AUCInf in data set [1] (setting [14]) is on record as 1,318 h * ng/mL. The AUClast in data set [1] (setting [14]) is 1,169 h * ng/mL. In data set [1] (setting [14]), this compound registered a Cmax of 285 ng/mL. Also, the Tmax in data set [1] (setting [14]) stood at 3.33 h. Also, the saturated solubility came to 301.086 mg/mL in data set [3] (pH 1.0, water); 3.110 mg/mL in data set [3] (pH 2.0, water); 1.516 mg/mL in data set [3] (pH 3.0, water); 2.034 mg/mL in data set [3] (pH 4.5, water); 0.018 mg/mL in data set [3] (pH 6.0, water); 0.008 mg/mL in data set [3] (pH 6.8, water). Moreover, the saturated solubility in data set [3] (pH 7.4, water) amounted to 0.007 mg/mL; in data set [3] (pH 8.0, water), 0.008 mg/mL.
